The results in this text go back to patent US10807959B2, “WDR5-MLL1 inhibitors and modulators” (Vanderbilt University, priority 2018, dated 2020).

pKi: −log10 of the molar value.

Assay [1] deals with T1, WDR5 (Homo sapiens (Human), UniProt P61964). Description: Fluorescence polarization anisotropy (FPA) competition assay, displacement of FITC-MLL or 10mer-Thr-FAM peptide. Type of assay: binding. From the text:
The assay is run in 384-well format and is read on a BioTek Cytation. […] Replicate values are fit to a 4-parameter fit in XLFit to generate a single IC50 value for each compound that is then converted to a Ki value. Experiments are repeated to generate a 2nd, independent Ki value; values from the two experiments are averaged to produce the reported Ki value for the compound.

The target in assay [2] is T1, WDR5. Description: TR-FRET binding assay, displacement of 10mer-Thr-FAM probe from His-tagged WDR5. As for the experimental part:
The LanthaScreenTM Elite Tb-anti-HIS Antibody from ThermoFisher Scientific was used for this purpose. […] The ratio of the 520 and 495 signals are then utilized to generate a dose-response curve to calculate an IC50 value. […] WDR[…] tag protein is used at 2 nM.

Setting [3] is: Inhibition of WDR5 by FPA assay.
Setting [4] is: Inhibition of WDR5 by TR-FRET assay.

For orientation: pKi means the negative decadic logarithm of the Ki, by convention in mol/L. Read a high pKi as a low Ki.

As to “3-(((4,5-dihydro-1H-imidazol-2-yl)amino)methyl)-N-(3,5-dimethoxybenzyl)-4,5-difluorobenzamide [Example B30]”, in assay [1] (Table B2, WDR5 WIN-site binding affinity, values not less than 1 nM (FPA)), the pKi is 8.27.

In assay [1] (setting [3]), `O=C(NC(C1CC1)C1CC1)c1cc(CNC2=NCCN2)cc(-c2ccc(F)cc2Cl)c1` [Example 2, 2′-Chloro-N-(dicyclopropylmethyl)-5-(((4,5-dihydro-1H-imidazol-2-yl)amino)methyl)-4′-fluoro-[1,1′-biphenyl]-3-carboxamide] gave a pKi of 8.22.

For the compound `COc1cc(CNC(=O)c2cc(CNC3=NCCN3)cc(-c3ccc(F)cc3Cl)c2)cc(OC)c1` [Example 3, 2′-chloro-5-(((4,5-dihydro-1H-imidazol-2-yl)amino)methyl)-N-(3,5-dimethoxybenzyl)-4′-fluoro-[1,1′-biphenyl]-3-carboxamide], the pKi in assay [1] (setting [3]) was 8.57.

In assay [1] (setting [3]), `O=C(NCc1cc(Cl)cc(Cl)c1)c1cc(Cl)cc(Cn2ccnc2)c1` [Example 110, 3-((1H-Imidazol-1-yl)methyl)-5-chloro-N-(3,5-dichlorobenzyl)benzamide] gave a negative-log Ki (pKi) of 7.47.

On to `COc1cc(Cn2ccnc2)cc(C(=O)NCc2ccc(Cl)c(C)c2)c1` [Example 113, 3-((1H-Imidazol-1-yl)methyl)-N-(4-chloro-3-methylbenzyl)-5-methoxybenzamide], for which the pKi in assay [1] (setting [3]) was 6.85.

`Cc1cc(CNC(=O)c2cc(Cn3ccnc3)cc(OC3CCCC3)c2)ccc1Cl` [Example 115, 3-((1H-Imidazol-1-yl)methyl)-N-(4-chloro-3-methylbenzyl)-5-(cyclopentyloxy)benzamide] had a negative logarithm of the Ki (pKi) in assay [1] (setting [3]) of 8.46.

The compound `COc1cc(CNC(=O)c2cc(Cn3ccnc3)cc(Oc3ccccc3)c2)cc(OC)c1` [Example 120, 3-((1H-imidazol-1-yl)methyl)-N-(3,5-dimethoxybenzyl)-5-phenoxybenzamide] gave a negative logarithm of the Ki (pKi) in assay [1] (setting [3]) of 8.29.

Consider `Cc1ccncc1-c1cc(Cn2ccnc2)cc(C(=O)NCc2ccc(Cl)c(Cl)c2)c1` [Example 121, 3-((1H-imidazol-1-yl)methyl)-N-(3,4-dichlorobenzyl)-5-(4-methylpyridin-3-yl)benzamide], for which the negative-log Ki (pKi) in assay [1] (setting [3]) was 8.89.

Consider `Cc1cc(-c2cc(Cn3ccnc3)cc(C(=O)NCc3ccc(Cl)c(Cl)c3)c2)ccn1` [Example 123, 3-((1H-Imidazol-1-yl)methyl)-N-(3,4-dichlorobenzyl)-5-(2-methylpyridin-4-yl)benzamide], for which the negative logarithm of the Ki (pKi) in assay [1] (setting [3]) was 8.06.

Consider `COc1cncc(-c2cc(Cn3ccnc3)cc(C(=O)NCc3ccc(Cl)c(Cl)c3)c2)c1` [Example 128, 3-((1H-Imidazol-1-yl)methyl)-N-(3,4-dichlorobenzyl)-5-(5-methoxypyridin-3-yl)benzamide], for which the negative-log Ki (pKi) in assay [1] (setting [3]) is 8.66.

`COc1cc(CNC(=O)c2cc(Cn3ccnc3)cc(-c3ccoc3C)c2)cc(OC)c1` [Example 130, 3-((1H-Imidazol-1-yl)methyl)-N-(3,5-dimethoxybenzyl)-5-(2-methylfuran-3-yl)benzamide] gave a negative-log Ki (pKi) in assay [1] (setting [3]) of 8.68.

In assay [2] (setting [4]), `O=C(NCc1ccc(Cl)c(Cl)c1)c1cc(Cn2ccnc2)cc(C(F)(F)F)c1` [Example 141, 3-((1H-Imidazol-1-yl)methyl)-N-(3,4-dichlorobenzyl)-5-(trifluoromethyl)benzamide] gave a pKi of 8.00.

On to `O=C(NCc1ccc(Cl)c(Cl)c1)c1cc(Cn2ccnc2)cc(OC2CCC2)c1` [Example 142, 3-((1H-Imidazol-1-yl)methyl)-5-cyclobutoxy-N-(3,4-dichlorobenzyl)benzamide], for which, in assay [2] (setting [4]), the pKi was 9.23.

Turning to `Cc1nccn1Cc1cc(OC2CCC2)cc(C(=O)NCc2ccc(Cl)c(Cl)c2)c1` [Example 143, 3-Cyclobutoxy-N-(3,4-dichlorobenzyl)-5-((2-methyl-1H-imidazol-1-yl)methyl)benzamide], the negative-log Ki (pKi) in assay [2] (setting [4]) is 9.37.

With `Cc1ccnc(C(NC(=O)c2cc(Cn3ccnc3C)cc(N3CCOCC3)c2)C2CC2)c1` (centres unmarked) [Example 144, N-(cyclopropyl(4-methylpyridin-2-yl)methyl)-3-((2-methyl-1H-imidazol-1-yl)methyl)-5-morpholinobenzamide], the pKi in assay [2] (setting [4]) was 8.32.

Regarding `COc1cc(CNC(=O)c2cc(Cn3ccnc3)cc(-c3ccc(=O)[nH]c3)c2)cc(OC)c1` [Example 145, 3-((1H-Imidazol-1-yl)methyl)-N-(3,5-dimethoxybenzyl)-5-(6-oxo-1,6-dihydropyridin-3-yl)benzamide], the negative logarithm of the Ki (pKi) in assay [2] (setting [4]) was 7.66.

With `COc1ccnc(CNC(=O)c2cc(C)c(OC)c(Cn3ccnc3C)c2)c1` [Example 146, 4-Methoxy-N-((4-methoxypyridin-2-yl)methyl)-3-methyl-5-((2-methyl-1H-imidazol-1-yl)methyl)benzamide], the negative-log Ki (pKi) in assay [2] (setting [4]) was 6.30.

Take `Cc1nccn1Cc1cc(C(=O)NCc2ccc(Cl)c(Cl)c2)cc(-c2cccc(CO)c2)c1` [Example 147, N-(3,4-dichlorobenzyl)-3′-(hydroxymethyl)-5-((2-methyl-1H-imidazol-1-yl)methyl)-[1,1′-biphenyl]-3-carboxamide]: the pKi in assay [2] (setting [4]) was 9.51.

In assay [2] (setting [4]), `COc1cc(OC)cc(C(C)NC(=O)c2cc(Cn3ccnc3C)cc(-c3cccc(CO)c3)n2)c1` (centres unmarked) [Example 157, N-(1-(3,5-dimethoxyphenyl)ethyl)-6-(3-(hydroxymethyl)phenyl)-4-((2-methyl-1H-imidazol-1-yl)methyl)picolinamide] had a pKi of 7.57.

The compound `COc1cc(OC)cc(C(C)NC(=O)c2cc(Cn3ccnc3C)cc(-c3ccc(F)cc3OC)n2)c1` (centres unmarked) [Example 158, N-(1-(3,5-dimethoxyphenyl)ethyl)-6-(4-fluoro-2-methoxyphenyl)-4-((2-methyl-1H-imidazol-1-yl)methyl)picolinamide] had a pKi in assay [2] (setting [4]) of 8.10.

With `COc1cc(OC)cc(C(C)NC(=O)c2cc(Cn3ccnc3C)cc(-c3ccc(F)c(C(N)=O)c3)n2)c1` (centres unmarked) [Example 161, 6-(3-Carbamoyl-4-fluorophenyl)-N-(1-(3,5-dimethoxyphenyl)ethyl)-4-((2-methyl-1H-imidazol-1-yl)methyl)picolinamide], the negative logarithm of the Ki (pKi) in assay [2] (setting [4]) was less than 7.48.

`COc1cc(OC)cc(C(C)NC(=O)c2cc(Cn3ccnc3C)cc(-c3ccc(F)c(CO)c3)n2)c1` (centres unmarked) [Example 163, N-(1-(3,5-dimethoxyphenyl)ethyl)-6-(4-fluoro-3-(hydroxymethyl)phenyl)-4-((2-methyl-1H-imidazol-1-yl)methyl)picolinamide] gave a negative-log Ki (pKi) in assay [2] (setting [4]) of less than 7.48.

On to `COc1cc(F)ccc1-c1cc(Cn2ccnc2C)cc(C(=O)NCc2ccc(Cl)c(Cl)c2)n1` [Example 165, N-(3,4-Dichlorobenzyl)-6-(4-fluoro-2-methoxyphenyl)-4-((2-methyl-1H-imidazol-1-yl)methyl)picolinamide], for which, in assay [2] (setting [4]), the negative logarithm of the Ki (pKi) was 7.96.

As for `COc1ccc(C(=O)NCc2ccc(Cl)c(Cl)c2)cc1CNC1=NCCN1` [Example B28], the pKi in assay [2] was 9.21.

Turning to `O=C(NCc1ccc(Cl)c(Cl)c1)c1cc(F)c(F)c(CNC2=NCCN2)c1` [Example B33], in assay [2], the pKi was 9.35.

For `O=C(NCc1ccc(Cl)c(Cl)c1)c1cc(CNC2=NCCN2)ccc1F` [Example B36, N-(3,4-dichlorobenzyl)-5-(((4,5-dihydro-1H-imidazol-2-yl)amino)methyl)-2-fluorobenzamide], the pKi in assay [2] is 9.04.

In assay [2], `Cc1cc(CNC(=O)c2ccc(F)c(CNC3=NCCN3)c2)ccc1Cl` [Example B47] showed a negative logarithm of the Ki (pKi) of 9.72.

In the case of `COc1cc(CNC(=O)c2cc(CNC3=NCCN3)cc(-c3ccc(F)nc3C)c2)cc(OC)c1` [Example B63], the pKi in assay [2] is 9.88.

On to `Cc1nc(F)ccc1-c1cc(CNC2=NCCN2)cc(C(=O)NCc2ccc(Cl)c(Cl)c2)c1` [Example B64], for which the pKi in assay [2] was 10.67.

In the case of `COc1cc(CNC(=O)c2cc(CNC3=NCCN3)cc(-c3ccnc(C)c3)c2)cc(OC)c1` [Example B72], the negative-log Ki (pKi) in assay [2] is 9.20.

In the case of `Cc1cc(-c2cc(CNC3=NCCN3)cc(C(=O)NCc3ccc(Cl)c(Cl)c3)c2)ccn1` [Example B74], the negative-log Ki (pKi) in assay [2] is 10.51.

The compound `Cc1cc(-c2cc(CNC3=NCCN3)cc(C(=O)NCc3cc(Cl)cc(Cl)c3)c2)ccn1` [Example B81] showed a pKi in assay [2] of 10.48.

`Cc1cc(-c2cc(CNC3=NCCN3)cc(C(=O)NCc3ccc(Cl)c(C)c3)c2)ccn1` [Example B84] had a pKi in assay [2] of 9.93.

Regarding `Cc1ccncc1-c1cc(CNC2=NCCN2)cc(C(=O)NCc2cc(Cl)cc(Cl)c2)c1` [Example B87], the negative logarithm of the Ki (pKi) in assay [2] was 9.70.

For the compound `Cc1cc(C)cc(CNC(=O)c2cc(CNC3=NCCN3)cc(-c3ccnc(C)c3)c2)c1` [Example B90], the pKi in assay [2] is 9.94.

On to `Cc1ccncc1-c1cc(CNC2=NCCN2)cc(C(=O)NC(C2CC2)C2CC2)c1` [Example B93], for which the pKi in assay [2] is 9.12.

The compound `Cc1cc(-c2cc(CNC3=NCCN3)cc(C(=O)NCc3ccc(Cl)c(Cl)c3)c2)cnc1F` [Example B99] had a pKi in assay [2] of 10.06.

The compound `COc1ccc(CNC(=O)c2cc(CNC3=NCCN3)cc(-c3cc(C)cnc3F)c2)cc1OC` [Example B107] had a pKi in assay [2] of 10.02.

In assay [2], `COc1cc(CNC(=O)c2cc(CNC3=NCCN3)cc(-c3cc(C)cnc3F)c2)cc(OC)c1` [Example B109] had a pKi of 10.41.

The compound `Cc1cc(-c2cc(CNC3=NCCN3)cc(C(=O)NCc3cc(Cl)ccn3)c2)cc(C)n1` [Example B111] gave a pKi in assay [2] of 10.06.

`COc1ccnc(CNC(=O)c2cc(CNC3=NCCN3)cc(-c3cc(OC)ccc3OC)c2)c1` [Example B115] showed a negative-log Ki (pKi) in assay [2] of 9.32.

Regarding `COc1ccnc(CNC(=O)c2cc(CNC3=NCCN3)cc(-c3cc(Cl)ccc3OC)c2)c1` [Example B116], the negative-log Ki (pKi) in assay [2] is 9.97.

The compound `O=C(NCc1ccc(Cl)c(Cl)c1)c1cc(CNC2=NCCN2)cc(-c2ccc(F)nc2F)n1` [Example C2] showed a negative-log Ki (pKi) in assay [2] of 9.51.

On to `Cc1cc(F)ccc1-c1cc(CNC2=NCCC2)cc(C(=O)NCc2ccc(Cl)c(Cl)c2)n1` [Example C22], for which the pKi in assay [2] is 9.88.
